Measured values reported in patent US9045450B2, “Method for chemical synthesis of antrocin and use thereof for suppressing non-small cell lung cancer” (KAIYEW INVESTMENT CORP., priority 2011, dated 2015).
“Also recorded” adds a separate entry of the source.

What was measured:
H1975 cells = experiment: Cytotoxicity / cell proliferation, sulforhodamine B; format: cell-based, human; conditions: H1975, antrocin 0.5-10 μM, two days, FIG. 4 (A)
Procedure: (§1) Human lung cancer cell lines (CL1-0, CL1-5, H1975, H441, PC9, A549) and human bronchial epithelia cell lines (BEAS-2B) were obtained from the Institute of Clinical Medicine, Taipei Medical University. The cells were grown and maintained in DMEM medium (Dulbecco's Modified Eagle's Medium and RPMI basal medium supplemented with 10% fetal bovine serum, 2 mM glutamine, […] streptomycin, and 100 U/ml penicillin in a wet incubator at 5% CO2.
(§2) Lung cancer cell were grown in a medium supplemented with 10% fetal bovine serum until the cells grew to approximately 80% of their full-blown size. Old culture solution was drained, the lung cancer cells were washed with PBS buffer solution (phosphate buffered saline), and 10 ml of serum-free culture medium was added. Different pharmaceutical drugs were added according to experimental purposes, all reactions were carried out in an incubator at 37° C.
(§3) Human lung cancer cells (CL1-0, CL1-5, H1975, H441, PC9, A549) and human bronchial epithelial cells (BEAS-2B) were seeded in 96-well culture plates (2000 cells/well) and incubated overnight in 100 μl complete DMEM. […] After two days, total number of human cells in each well was measured using sulforhodamine B (a fluorescent protein dye). […] The optical density was measured at 562 nm by a microtiter plate detector. […]

H441 cells [1] = experiment: as above; format: cell-based, human; conditions: H441, antrocin 0.5-10 μM, two days, FIG. 4 (A)
Procedure: as §1, §2, §3

XIAP = experiment: Protein expression in H441 cells (FIG. 6); format: cell-based, human
Description: (§4) The inhibitory effect of antrocin on protein expression is presented as relative multiple.Beta-actin protein was the internal reference (loading control).

cyclin D1 = experiment: Protein expression in H441 cells (FIG. 6); format: cell-based, human
Description: as §4

caspase-3 enzyme = experiment: Protein expression in H441 cells (FIG. 6); format: cell-based, human; conditions: increasing dose
Description: as §4

[2] = Body weight of tumor-bearing mice; format: in vivo, non-obese diabetic/severe combined immunodeficient mice; conditions: 5 and 10 mg/kg/day intraperitoneal, four weeks, FIG. 7 (C)
Procedure: (§5) […] cells (6×10^5/100 μl PBS) were intravenously injected into immunodeficient mice via lateral tail vein. Antrocin treatments (low dose of 5 mg/kg/day and high dose of 10 mg/kg/day) were performed by daily intraperitoneal injection into tumor-bearing mice over a period of four weeks. Weekly observations were performed and data were recorded for (A) VIS images, (B) Tumor growth, (C) Body weights, and (D) Survival curves.
(§6) The present invention further investigated anticancer effect of antrocin in vivo. H441-L2G cells expressing firefly luciferase and green fluorescent protein were implanted by intravenous injections via the lateral tail vein (6×10^5/100 μl PBS) into non-obese diabetic/severe combined immunodeficient mice. Daily intraperitoneal injections of antrocin (two groups of mice, a low dose of 5 mg/kg/day and a high dose of 10 mg/kg/day) were given over a period of four weeks to observe tumor growth.
The present invention further investigated the anticancer effect of antrocin in vivo. H441-L2G cells expressing firefly luciferase and green fluorescent protein were implanted by intravenous injections via the lateral tail vein (6×10^5/100 μl PBS) into non-obese diabetic/severe combined immunodeficiency mice. […]

H441 cells [3] = experiment: Apoptosis, flow cytometry; format: cell-based, human; conditions: H441, antrocin treatment for 48 hours, FIG. 4 (B)
H441-L2G cells = experiment: Lung tumorigenesis in vivo, bioluminescence imaging and survival; set-up: species or system non-obese diabetic/severe combined immunodeficient mice; conditions: for tumor growth: daily intraperitoneal injection
Procedure: as §5, §6
Firefly luminescence genes (firefly luciferase) was introduced into H441 lung cancer stem cells by transgenesis, lung cancer cells (containing firefly luminescence genes) were then isolated from H441 lung cancer stem cells by FACS (Fluorescence-activated cell sorting) and implanted into immunodeficient mice subcutaneously or into the circulation system via the tail vein. IVIS imaging system (IVIS® Imaging System 200 Series, Xenogen) was used in the present embodiment for bioluminescent imaging. All mice were introduced with 150 mg/kg D-luciferin by intraperitoneal injection, after 10 minutes the mice were fixed in the darkroom of the IVIS200, the highly sensitive CCD camera of the IVIS 200 was used to detect the cold light radiated by firefly luminescence genes in H441 cancer cells. All mice were imaged for 120 seconds and the imaging time was shortened when the signal strength was saturated. All mice were anesthetized (2% isoflurane and 98% oxygen gas) and unconscious throughout the entire imaging process. Tumor sizes and signal strength radiated by the cold-light were compared and analyzed by using a software package of the IVI200. The inhibitory effect of antrocin on human lung cancer cells was assessed by using this bio-illumination-imaging system.
as §6, with “investigated the” for “investigated”, “immunodeficiency” for “immunodeficient”, “small” for “low”, “large” for “high”

SMILES: C=C1CC[C@H]2C(C)(C)CCC[C@@]23C(=O)OC[C@@H]13 [antrocin]
- inhibition of cancer cell growth/proliferation (H1975 cells): most robust inhibitions
- inhibition of cancer cell growth/proliferation (H441 cells [1]): most robust inhibitions
- inhibition of XIAP protein expression (XIAP): dose-dependently inhibited
- inhibition of cyclin D1 protein expression (cyclin D1): dose-dependently inhibited
- activation of caspase enzyme 3 (caspase-3 enzyme): markedly activated
- body weight, treated group vs control group [2]: no significant difference
- number of cells in early and late (final) stage of apoptosis (H441 cells [3]): increase in the number of cells in early and late stage of apoptosis in a dose-dependent fashion; also recorded: increased significantly in a dose-dependent fashion
- increase of median survival time (H441-L2G cells; at the end of the experiment (the fiftieth day)): at least 60%
- mice that survived for longer than 50 days (H441-L2G cells; low dose 5 mg/kg/day): 75%
- tumor growth (H441-L2G cells; low dose 5 mg/kg/day, after two weeks): inhibited after two weeks in half of the mice
- tumor growth (H441-L2G cells; low dose 5 mg/kg/day, third week): tumor growth was observed in most of these mice
- median survival (H441-L2G cells; treated group, control group 28 days, FIG. 7 (D)): > 50 days
